# Measured values from US8168236B2, “Extracts of Polygonum multiflorum thunb., and preparation process and uses of the same” (National Yang-Ming University, priority 2003, dated 2012).
# B1: mGM-CSF: granulocyte-monocyte colony stimulating factor, 20 ng/ml positive control (protein, UniProt P01587 18-141, looked up)
# Granulocyte-macrophage …: APTRSPITVTRPWKHVEAIKEALNLLDDMPVTLNEEVEVVSNEFSFKKLTCVQTRLKIFEQGLRGNFTKLKGALNMTASYYQTYCPPTPETDCETQVTTYADFIDSLKTFLTDIPFECKKPGQK
# Tests used:
# [1] = test system: EGF-stimulated bone marrow cells; assay: MTT assay, proliferation of EGF-stimulated bone marrow cells; type: cell-based, mouse; details: positive control, 50 ng/ml EGF
# Description: Under sterile condition, C57BL/6j (male, 15-20 g, 4-6 weeks old) were sacrificed, and their femoral bones were injected with DMEM/F12 culture medium (Gibco, N.Y. USA) so as to flush out the bone marrow cells. The collected cells in DMEM/F12 culture medium were then filtered through a sterile No. 53 nylon mesh so as to obtain a single cell suspension, the cell concentration of which was subsequently adjusted to 6×10^5 cells/ml with DMEM/F12 culture medium containing N2 supplement (Sigma, Mo., USA).
# The mouse bone marrow cells (1.5×10^5 nucleated cells/well) as prepared in the above Procedure (I) were placed into 96-well culture plates and incubated in 200 μl of a defined medium (DMEM/F12 plus N2 supplement) supplemented with EGF (at a final concentration of 10 ng/ml). After incubation at 37° C. for 24 hrs, different concentrations (0.01 μg/ml, […], 1 μg/ml, 10 μg/ml and 100 μg/ml) of the extracts of Polygonum multiflorum Thunb. root obtained in Example 1 were added into the wells of the culture plates, respectively. […]
# Subsequently, MTT assay was performed. […] The culture plates were allowed to stand for 14 hours and then subjected to absorbance detection using a microplate reader at O.D. 550 nm-O.D. 690 nm. […] The obtained experimental data were analyzed by Student's t-test.
# [2] = test system: dexamethasone-stimulated mouse primary bone marrow cell cultures; assay: Alkaline phosphatase colorimetry, dexamethasone-stimulated osteogenic cell maturation (test A); type: cell-based; details: positive control, 0.1 nM estrogen
# Description: Under sterile condition, C57BL/6j (male, 15-20 g, 4-6 weeks old) were sacrificed, and their femoral bones were injected with alpha-minimal essential medium (α-MEM) culture medium (Gibco, N.Y., USA) so as to flush out the bone marrow cells. The collected cells in α-MEM culture medium were then filtered through a sterile No. 53 nylon mesh so as to obtain a single cell suspension.
# The mouse bone marrow cells (1.5×10^5 nucleated cells/well) as prepared in the above Procedure (I) were placed into 96-well culture plates and incubated in α-MEM supplemented with 15% FCS, 10 μM dexamethazone, 50 μg/ml ascorbic acid, and 10 mM sodium, β-glycerophosphate. After incubation at 37° C. for 48 hrs, extracts of Polygonum multiflorum Thunb. root with different concentrations (0.01 μg/ml, 0.1 μg/ml, 1 μg/ml, 10 μg/ml, 100 μg/ml and 1000 μg/ml) were added into the wells of the culture plates, respectively. […]
# The alkaline phosphatase (AP) colorimetry (Aubin, J. E. et al. (1995), Bone, 17: 77S-83S; Sabokbar, A. et al. (1994), Bone & Mineral, 27: 57-67) was conducted as follows: The culture medium in each well of the culture plates was removed, and the remaining cells were added with 120 μl of 0.01% SDS and incubated in a 37° C. incubator for 10 minutes. […] After a reaction time of 10-15 minutes at 37° C., the culture plates were subjected to absorbance detection at O.D. 405 nm.
# [3] = test system: mGM-CSF-stimulated mouse primary bone marrow cultures; assay: MTT assay, mGM-CSF-stimulated proliferation of bone marrow cultures; type: cell-based; details: positive control, mGM-CSF 20 ng/ml
# Description: Subsequently, MTT assay was performed. Each well of the culture plates was added with a MTT solution (5 mg/ml dissolved in 1×PBS) to a final concentration of 1 mg/ml. Four hours later, each well of the culture plates was added with a MTT lysis buffer (20% sodium dodecyl sulfate (SDS) in 50% dimethylformamide (DMF)/50% H2O) in an amount of 150 μl/well. The culture plates were allowed to stand for 14 hours and then subjected to absorbance detection using a microplate reader at O.D. 550 nm-O.D. 690 nm. Each experiment was conducted in duplicate, and n=6 wells for each group. The obtained experimental data were analyzed by Student's t-test.
# The mouse bone marrow cells (1.5×10^5 nucleated cells/well) prepared according to the procedures set forth in Procedure (I) of Example 5 were placed into 96-well culture plates and incubated in RPMI supplemented with 5% FCS and mGM-CSF (at a final concentration of 2 ng/ml). After incubation at 37° C. for 24 hrs, extracts of the Polygonum multiflorum Thunb. root with different concentrations (0.1 μg/ml, 1 μg/ml, 10 μg/ml and 100 μg/ml) were added into the wells of the culture plates, respectively. The positive control group was treated with 20 ng/ml mGM-CSF, and the negative control group was treated with 2 ng/ml mGM-CSF. […]
molecule,measurement,setting,value
"EGF: epidermal growth factor, 50 ng/ml positive control",Proliferation index,[1],1.26 (±0.13)
estrogen,AP activity index,[2],1.28
B1,Proliferation index,[3],2.05
